Series [1] deals with SK-MEL-2 (melanoma).
Method: (§2) Cells were plated, the evening before treatment, for each treatment on 96-well plates (1×10^4 cells/well) in 100 μL volume per well. Drug solutions were prepared by diluting each test compound in DSMO (10 mM) with the appropriate cell growth media for each individual cell line, or in “Universal Media” if several cell lines were to be assayed in parallel, immediately prior to cell treatment. Universal Media consisted of 5 mL sodium pyruvate (100×liquid stock, CellGro), 5 mL glucose (100×, 45% liquid stock, CellGro), 5 mL Penicillin/Streptomycin (100×liquid stock, CellGro), 10 mL sodium bicarbonate (50×liquid stock, CellGro), 25 mL Fetal Calf Serum, 1.25 mL insulin (4 mg/mL, Gibco) and 449 mL RPMI media with 2 mM glutamine for a total volume of 500 mL. Cells were treated by aspirating media from each well and adding 80 μL of each drug solution to the attached cells. All treatments were performed in triplicate. Growth media (80 μL) were added to 3 blank wells (no cells) to measure background from the growth media Growth media alone (no DMSO or test compond) was added to 2 wells containing cells to measure the baseline MTS activity and vehicle (DMSO) control solutions were also included to monitor basal toxicity from DMSO. Cells were incubated at 37° C. for 72 h. MTS reagent (per 96-well plate) were prepared by combining 2 mL of MTS working solution (Cell Titer AQueous Non-Radioactive Cell Proliferation Assay, Promega, cat#G1112), 100 μL of 0.92 mg/mL phenazine methosulfate/Dulbecco's PBS and 2.1 mL growth media. MTS reagent (40 μL) were added to each well and incubated at 37° C. for 1.5 to 4 h. Plates were gently shaken by hand until solution in each well appeared homogenous. Absorbances at 490 nm were measured on a plate reader at multiple time points following the addition of MTS reagent for each plate. Triplicate absorbance (490 nm) measurements were averaged following background (no cell) subtraction for each drug concentration. Percent Cell Viability was calculated for each drug concentration using the following equation: {[Absorbances(drug treated)]/[Absorbances(DMSO treated)]}×100%
(§3) Percent viability (y-axis) was plotted against drug concentration (x-axis) and the resulting graph was used to determine the 50% inhibitory concentration (IC50) for each drug.
In another series the test system is HT-29 (colon carcinoma). Description: MTS cell viability assay, HT-29. The following applies: Homo sapiens, 72 h. The series is classed as cell-based. Here is the method: (§1) All treatments were performed in triplicate. […] Cells were incubated at 37° C. for 72 h.
Another series has as its system SK-MEL-2. Briefly: Annexin-V assay (apoptosis versus necrosis). The series is classed as cell-based. The following applies: for selective apoptosis and dose dependence (in words): cell line not stated, above optimal dose cellular damage and non-apoptotic cell death. Here is the method: Cells were plated (8.75×10^5 cells/6 cm. diameter tissue culture plates), the evening before treatment, in 4 mL volume per plate. This cell density is equivalent to the cell density used in the MTS and Caspase assays (1×10^4 cells/well (96-well plate). Drug solutions were prepared, immediately prior to cell treatment, in the same as described for caspase assay
Growth media alone (no DMSO or drug) was added to a plate containing cells to measure the baseline-Annexin-V reactivity and vehicle (DMSO) alone control solutions were also prepared to monitor Annexin-V reactivity from DMSO. Cells were incubated at 37° C. for 8 h. Growth media (3 mL) was removed from each plate and added to a 15 mL conical tube containing 0.333 mL FCS (final FCS concentration of 10%). The media was saved to include any apoptotic/dead cells that may have detached from the plate during drug treatment. FCS was added to the media to prevent further cell damage and improve the efficiency of cell pelleting during subsequent centrifugation steps (empirical observation). Adherent cells were rinsed once with PBS and 1 mL of trypsin was added. Plates were rotated several times to assure coating of the entire surface with trypsin which was then removed. Plates were incubated at 37° C. for 4-5 min. Trypsinized cells were re-suspended in the saved media for each sample. Cell suspension was placed back into 15 mL tubes, which were then cooled on ice. Cells were re-suspended by pipetting 7-8 times. The tubes were centrifuged at 130×g for 5 min at 4° C. The resulting cell pellets were re-suspended in the ice cold 1 mL of 1× Nexin Buffer (Guava Nexin kit, Guava Technologies) and transferred to 1.5 mL conical microcentrifuge tubes to rinse cells with residual growth media. This procedure was repeated by centrifugation of cells at 130×g for 5 min, at 4° C. Re-suspension of the resulting cell pellet in 50 μL Nexin Staining Solution (Guava Nexin kit, Guava Technologies) was followed by incubation on ice, in the dark, for 20 min. Guava Samples were analyzed immediately on the Guava flow cytometer, using the Guava Nexin software package (see Guava user's manual and Guava Nexin kit protocol on data acquisition and analysis protocols).

In series [2] the test system is SK-MEL-2, A-375, Daoy, LN-229, OVCAR-3, HT-29, MCF-7 cell lines. The format is cell-based. Here is the method: as §1
For the next series, the system named is LN-229 (glioblastoma). Description: MTS cell viability assay, LN-229. The series is classed as cell-based. The following applies: Homo sapiens, 72 h. Here is the method: as §1
The subject of series [3] is SK-MEL-2 (melanoma). Briefly: MTS cell viability assay, SK-MEL-2. To be noted: Homo sapiens, SK-MEL-2, 72 h, read-out: IC50 SK-MEL-2.
Method: as §2, §3
The next series relates to SK-MEL-2 cells. Briefly: Caspase activation assay, SK-MEL-2. The series is classed as cell-based. To be noted: for caspase activating property compared with betulinic acid (1): SK-MEL-2, 5, 15, 50 μM, 2-24 h, absence of FBS. Here is the method: All treatments were performed in duplicate. […] Cells were incubated at 37° C. for 8 h. Caspase assay reagent (per 96-well plate) was prepared according to manufacturer's instructions (Homogeneous Caspases Assay, fluorometric, Roche) by combining 6.3 mL Incubation Buffer with 0.7 mL of Substrate Stock Solution. Caspase assay reagent (70 μL) was added to each well; the plate was gently shaken by hand for 15-20 seconds and incubated at 37° C. for 4 h.
Fluorescent emission was measured at 535 nm on a plate reader using the “homogeneous caspase” program (excitation Wavelength=490 nm, emission wavelength=535 nm). Duplicate wells for each treatment were averaged following background (no cells) subtraction (emission 535 nm value from all experimental emission 535 nm values) for each drug concentration.
DMSO treatment represented baseline caspase activation in the absence of drug. The percent changes in caspase activity were plotted on the y-axis for each drug treatment.
Caspase activation assays were conducted to further characterize the mode of cell death. A treatment time and dose at which maximum caspase activation was observed prior to massive cell destruction would be indicative of apoptosis induction. SK-MEL-2 cells were treated with 5, 15, and 50 μM of the compound for 2, 4, 6, 8, 16, and 24 h in the absence of FBS (Fetal Bovine Serum).

The subject of series [4] is OVCAR-3 (ovarian carcinoma). Briefly: MTS cell viability assay, OVCAR-3. The format is cell-based. The following applies: Homo sapiens, 72 h. Here is the method: as §1
A further series has as its system MCF-7 (breast carcinoma). Briefly: MTS cell viability assay, MCF-7. The format is cell-based. To be noted: Homo sapiens, MCF7, 72 h. Here is the method:
as §1

The test system of another series is Daoy (glioblastoma). Description: MTS cell viability assay, Daoy. The following applies: Homo sapiens, Daoy, 72 h, read-out: IC50 Daoy.
For another series, the system named is A-375 (melanoma). Description: MTS cell viability assay, A-375. To be noted: Homo sapiens, 72 h. The series is classed as cell-based. Here is the method:
as §1

Molecules are shown by their SMILES. In brackets after ≈: the same amount, converted by molar mass.

For `C=C(C)[C@@H]1CC[C@]2(C(=O)O)CC[C@]3(C)[C@H](CC[C@@H]4[C@@]5(C)CC[C@H](OC(=O)/C=C/c6ccc(OC(C)=O)c(OC(C)=O)c6)C(C)(C)[C@@H]5CC[C@]43C)[C@@H]12` [Compound 24, (1R,3aS,5aR,5bR,7aR,9S,11aR,11bR,13aR, 13bR)-9-((E)-3-(3,4-diacetoxyphenyl)acryloyloxy)-5a,5b,8,8,11a-pentamethyl-1-(prop-1-en-2-yl)icosahydro-1H-cyclopenta[a]chrysene-3a-carboxylic acid], in the series on SK-MEL-2 (melanoma) [1], the “improvement in cytotoxicity relative to betulinic acid 1 in SK-MEL-2” value is “greater than 5 fold”.
In the case of `C=C(C)[C@@H]1CC[C@]2(COC3CCCCO3)CC[C@]3(C)[C@H](CC[C@@H]4[C@@]5(C)CC6=C(ON(O)C6)C(C)(C)[C@@H]5CC[C@]43C)[C@@H]12` (stereo partly drawn) [Compound 32, (1R,3aS,5aR,5bR,7aR,12aR,12bR,14aR,14bR)-1-isopropenyl-5a,5b,8,8,12a-pentamethyl-3a-[(tetrahydro-2H-pyran-2-yloxy)methyl]-1,2,3,3a,4,5,5a,5b,6,7,7a,8,11,12,12a,12b,13,14, 14a,14b-icosahydro-10H-cyclopenta[7,8]chryseno[3,2-d]isoxazol-10-ol], the IC50 is 8 µg/mL (≈ 14.1 µM) in the series on HT-29 (colon carcinoma); 6 µg/mL (≈ 10.6 µM) in the series with LN-229 (glioblastoma); 5 µg/mL (≈ 8.81 µM) in the series with SK-MEL-2 (melanoma) [3]; 6 µg/mL (≈ 10.6 µM) in [4]; 6 µg/mL (≈ 10.6 µM) in the series with MCF-7 (breast carcinoma); 6 µg/mL (≈ 10.6 µM) in the series on Daoy (glioblastoma). The same compound came in with an IC50 in the series on A-375 (melanoma) of 6 µg/mL (≈ 10.6 µM). Besides, the “selective apoptosis and dose dependence (in words)” value in the series with SK-MEL-2 is on record as “induced selective apoptosis at an optimal dose”. For the same compound, the “cytotoxic potency across the cell line panel (in words)” value in series [2] is “potent across the entire cell line panel”. Also, in the series on SK-MEL-2 cells, the “caspase activating property compared with betulinic acid (1)” value was “more robust caspase activating property than betulinic acid”.
For `C=C(C)[C@@H]1CC[C@]2(CO)CC[C@]3(C)[C@H](CC[C@@H]4[C@@]5(C)C=C(C#N)C(=O)C(C)(C)[C@@H]5CC[C@]43C)[C@@H]12` [Compound 38, (1R,3aS,5aR,5bR,7aR,11aR,11bR,13aR,13bR)-3a-(hydroxymethyl)-5a,5b,8,8,11a-pentamethyl-9-oxo-1-(prop-1-en-2-yl)-2,3,3a,4,5,5a,5b,6,7,7a, 8,9,11a,11b,12,13,13a,13b-octadecahydro-1H-cyclopenta[a]chrysene-10-carbonitrile], the IC50 with HT-29 (colon carcinoma) came to 8 µg/mL (≈ 17.3 µM); with LN-229 (glioblastoma) it was 6 µg/mL (≈ 12.9 µM); with SK-MEL-2 (melanoma) [3], 6 µg/mL (≈ 12.9 µM); in series [4], 7 µg/mL (≈ 15.1 µM); in the series with Daoy (glioblastoma), 8 µg/mL (≈ 17.3 µM); in the series with A-375 (melanoma), 6 µg/mL (≈ 12.9 µM). The “apoptosis versus necrosis by the Annexin assay (in words)” value in the series with SK-MEL-2 (SK-MEL-2) is on record as “inducing apoptosis over necrosis robustly”. Besides, the “rank as apoptosis inducer within the collection (in words)” value in the series on SK-MEL-2 (caspase and Annexin assays, SK-MEL-2) is “most potent apoptosis inducer”. Also, the “cytotoxic potency across the cell line panel (in words)” value in [2] is reported as “potent across the entire cell line panel”. In addition, the “caspase activation in SK-MEL-2 (in words)” value in the series with SK-MEL-2 cells is “activated caspases”. Moreover, the “caspase activating property compared with betulinic acid (1)” value in the series on SK-MEL-2 cells is “more robust caspase activating property than betulinic acid”.
Turning to `C=C(C)[C@@H]1CC[C@]2(COC(=O)CBr)CC[C@]3(C)[C@H](CC[C@@H]4[C@@]5(C)C=C(C#N)C(=O)C(C)(C)[C@@H]5CC[C@]43C)[C@@H]12` [Compound 39, ((1R,3aS,5aR,5bR,7aR,11aR,11bR,13aR,13bR)-10-cyano-5a,5b,8,8,11a-pentamethyl-9-oxo-1-(prop-1-en-2-yl)-2,3,3a,4,5,5a,5b,6,7,7a,8,9,11a,11b,12,13,13a,13b-octadecahydro-1H-cyclopenta[a]chrysen-3a-yl)methyl 2-bromoacetate], the half-inhibitory concentration (IC50) in the series on HT-29 (colon carcinoma) is 6 µg/mL (≈ 10.3 µM); in the series with LN-229 (glioblastoma) it was 7 µg/mL (≈ 12 µM); with SK-MEL-2 (melanoma) [3], 20 µg/mL (≈ 34.2 µM); in series [4], 7 µg/mL (≈ 12 µM); with MCF-7 (breast carcinoma), 13 µg/mL (≈ 22.2 µM); with Daoy (glioblastoma), less than 2 µg/mL. This compound also returned an IC50 with A-375 (melanoma) of 4 µg/mL (≈ 6.84 µM). Also, the “caspase activation in SK-MEL-2 (in words)” value in the series on SK-MEL-2 cells was “induced caspase activation”.
Take `C=C(C)[C@@H]1CC[C@]2(CO)CC[C@]3(C)[C@H](CC[C@@H]4[C@@]5(C)CCC(NCCc6ccc(O)cc6)C(C)(C)[C@@H]5CC[C@]43C)[C@@H]12` (stereo partly drawn) [Compound 75, 4-(2-((1R,3aS,5aR,5bR,7aR,11aR,11bR,13aR,13bR)-3a-(hydroxymethyl)-5a,5b,8,8,11a-pentamethyl-1-(prop-1-en-2-yl)icosahydro-1H-cyclopenta[a]chrysen-9-ylamino)ethyl)phenol]: the “selective apoptosis and dose dependence (in words)” value with SK-MEL-2 is “induced selective apoptosis at an optimal dose”. Moreover, in the series with SK-MEL-2 cells, the “caspase activating property compared with betulinic acid (1)” value is given as “more robust caspase activating property than betulinic acid”.
`C=C(C)[C@@H]1CC[C@]2(C(=O)O)CC[C@]3(C)[C@H](CC[C@@H]4[C@@]5(C)CCC(NCCNC(=O)OC(C)(C)C)C(C)(C)[C@@H]5CC[C@]43C)[C@@H]12` (stereo partly drawn) [Compound 79, (1R,3aS,5aR,5bR,7aR,11aR,11bR,13aR,13bR)-9-(2-(tert-butoxycarbonylamino)ethylamino)-5a,5b,8,8,11a-pentamethyl-1-(prop-1-en-2-yl)icosahydro-1H-cyclopenta[a]chrysene-3a-carboxylic acid]: the “selective apoptosis and dose dependence (in words)” value in the series on SK-MEL-2 is given as “induced selective apoptosis at an optimal dose”.
For `C=C(C)[C@@H]1CC[C@]2(C(=O)O)CC[C@]3(C)[C@H](CC[C@@H]4[C@@]5(C)CC[C@H](NCCc6ccc(O)cc6)C(C)(C)[C@@H]5CC[C@]43C)[C@@H]12` [Compound 82, (1R,3aS,5aR,5bR,7aR,9S,11aR,11bR,13aR,13bR)-9-(4-hydroxyphenethylamino)-5a,5b,8,8,11a-pentamethyl-1-(prop-1-en-2-yl)icosahydro-1H-cyclopenta[a]chrysene-3a-carboxylic acid], the IC50 with HT-29 (colon carcinoma) was found to be 4 µg/mL (≈ 6.95 µM); in the series on LN-229 (glioblastoma) it was 5 µg/mL (≈ 8.68 µM); with SK-MEL-2 (melanoma) [3] it was 5 µg/mL (≈ 8.68 µM); in [4], 6 µg/mL (≈ 10.4 µM); with MCF-7 (breast carcinoma) it was 6 µg/mL (≈ 10.4 µM); with Daoy (glioblastoma) it was 5 µg/mL (≈ 8.68 µM). This compound also came in with an IC50 in the series with A-375 (melanoma) of 5 µg/mL (≈ 8.68 µM). For the same compound, in series [2], the “cytotoxic potency across the cell line panel (in words)” value is “potent across the entire cell line panel”.
With `CC(C)[C@@H]1CC[C@]2(C(=O)O)CC[C@]3(C)[C@H](CC[C@@H]4[C@@]5(C)CC[C@H](N)C(C)(C)[C@@H]5CC[C@]43C)[C@@H]12` [Compound 86, (1S,3aS,5aR,5bR,7aR,9S,11aR,11bR,13aR,13bR)-9-amino-1-isopropyl-5a,5b,8,8,11a-pentamethylicosahydro-1H-cyclopenta[a]chrysene-3a-carboxylic acid], the IC50 in the series with HT-29 (colon carcinoma) was 5 µg/mL (≈ 10.9 µM); in the series with LN-229 (glioblastoma) it was 5 µg/mL (≈ 10.9 µM); in the series with SK-MEL-2 (melanoma) [3], 6 µg/mL (≈ 13.1 µM); in series [4], 6 µg/mL (≈ 13.1 µM); in the series with MCF-7 (breast carcinoma), 6 µg/mL (≈ 13.1 µM); with Daoy (glioblastoma), 6 µg/mL (≈ 13.1 µM). Besides, half-maximal inhibition with A-375 (melanoma) (IC50) required 5 µg/mL (≈ 10.9 µM). Further, the “cytotoxic potency across the cell line panel (in words)” value in [2] is reported as “potent across the entire cell line panel”.

The record behind these values is US20070232577A1, “Synthetic pentacyclic triterpenoids and derivatives of betulinic acid and betulin” (Advanced Life Sciences, Inc., priority 2006, published 2007).
